Experimental data: US12478628B2, “Germ cell nuclear factor ligands and methods of use thereof” (Saint Louis University, priority 2020, dated 2025)
Positions count from the first letter of the chain named.

What was measured:
GCNF LBD = target: T1, GCNF LBD (Homo sapiens, UniProt Q15406); experiment: Solution 1H NMR methyl peak perturbation of GCNF LBD; type: binding; conditions: 1.05:1 molar equivalence of ligand; seven shielded resonances monitored
T1 construct: Human GCNF (NR6A1) LBD (residues 248-480); made in house; host or cells: E. coli BL(21) DE3
T1 sequence (Q15406 248-480): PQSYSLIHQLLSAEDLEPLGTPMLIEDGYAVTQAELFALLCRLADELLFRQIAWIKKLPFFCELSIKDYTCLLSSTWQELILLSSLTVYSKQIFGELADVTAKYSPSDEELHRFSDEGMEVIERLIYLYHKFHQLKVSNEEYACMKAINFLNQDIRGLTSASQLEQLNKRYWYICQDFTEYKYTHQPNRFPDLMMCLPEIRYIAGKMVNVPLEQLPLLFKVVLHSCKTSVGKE
Method: Solution NMR spectroscopy. One hundred micromolar (100 μM) of GCNF LBD with 10% D2O were mixed with either 0.5% DMSO-d6 or 1.05:1 molar equivalence of ligand and transferred to a Shigemi tube. ^1H NMR data were acquired at 298 K on a 700 MHz Bruker Avance II HDTM NMR instrument equipped with a QCI cryoprobe. For each spectrum, 1024 transients were collected into 32,000 data points, with a spectral width of 16.7 kHz. Data were analyzed using Topspin 3.5 pl 7.

[1] = target: T2, GCNF LBD with NCoR ID1 corepressor peptide (Homo sapiens, UniProt Q15406); experiment: FP ligand titration assay, NCoR ID1 peptide recruitment; type: biochemical; conditions: 20 μM GCNF LBD
T2 construct: Human GCNF (NR6A1) LBD (residues 248-480); made in house; host or cells: E. coli BL(21) DE3
T2 sequence (Q15406 248-480): T1 sequence (Q15406 248-480)
Method: (§1) FP Assay. Fluorescence polarization (FP) assays were performed in triplicate on a 384-well Corning 3820 black opaque plate using a Biotek Synergy Neo2 HTS multimode microplate reader at excitation and emission wavelengths of 485 nm and 538 nm, respectively. Data were analyzed and plotted using GraphPad Prism as mean±SEM.
(§2) For the FP ligand titration assay, the aforementioned N-terminus fluorescein-tagged corepressor peptides were diluted to 500 nM from a 100 μM DMSO stock in the presence of 20 μM GCNF LBD and ligand concentration points 30, 20, 13, 9, 6, 4, 2.6, 1.7 and 0 μM in assay buffer containing 50 mM HEPES (pH 7.5), 50 mM KCl, 5 mM TCEP, 0.5 mM EDTA and 0.005% Tween20. The relative polarization was plotted against log of ligand concentration (μM) and the half maximal effective concentration (EC50) values were derived via sigmoidal fit.

GCNF LBD F284A = target: T3, GCNF LBD F284A (Homo sapiens, UniProt Q15406, F284A); experiment: DSF of GCNF LBD mutant F284A; type: binding; conditions: 20 μM ligand
T3 construct: Human GCNF (NR6A1) LBD (residues 248-480) and mutants F284A/F361A; hexahistidine tag with 3C protease site; made in house; host or cells: E. coli BL(21) DE3
T3 sequence (Q15406 248-480 F284A): T1 sequence (Q15406 248-480) with F37A
Method: Protein Expression and Purification. Human GCNF (NR6A1) LBD (residues 248-480) and mutants F284A/F361A, human LRH-1 (NR5A2) LBD (residues 291-541), human RXRα LBD (residues 223-462), human COUP-TF I LBD (residues 184-410) and human SF-1 LBD (residues 219-461) were subcloned in pET45b(+) plasmid (Novagen) were expressed in E. coli BL(21) DE3 cells in terrific broth with 0.1 mg/mL ampicillin as 3C protease-cleavable hexahistidine-tagged fusion proteins. The bacterial culture was grown at 37° C. to an optical density of 0.8 to 1.0 at 600 nm. Protein expression was induced by adding 1 mM IPTG and was allowed to proceed for 14 h at 22° C. […]
DSF Assay. […] A total of 450 compounds (Life Chemicals) previously selected from a nuclear-receptor-biased library targeting REV-ERB were analyzed. Thermal stability was assessed on a Quantstudio 6 instrument (Biosystems) by ramping the temperature from 25° C. to 95° C. at 0.05° C./s and protein melt shifts were subsequently quantified by Boltzmann-derived melting temperature (Tm) using the Protein Thermal Shift (ThermoFisher) software. […]

[2] = tested on: GCNF single point mutations F284A, Y336F and F361A with SMRT ID2 peptide; experiment: FP SMRT ID2 recruitment with GCNF point mutants; type: biochemical, human; conditions: Y336F and F361A vs wild-type
Method: as §1, §2

shielded methyl 1H NMR resonances of GCNF LBD perturbed (GCNF LBD) | effect on recruitment of NCoR ID1 to GCNF [1] | effect of mutation F284A on ΔTm compared to WT (GCNF LBD F284A) | SMILES | SMRT-ID2 peptide recruitment by GCNF mutants [2]
5 of 7 | did not substantially alter | substantially decreased the ΔTm | Cc1ccc(-n2ncc3c(N4CCOCC4)nc(NCc4ccco4)nc32)cc1 [Ligand 34, N-[(furan-2-yl)methyl]-1-(4-methylphenyl)-4-(morpholin-4-yl)-1H-pyrazolo[3,4-d]pyrimidin-6-amine] | substantially weakened corepressor peptide recruitment
5 out of 7 | did not substantially alter | no substantial effect | O=C(Cn1cc(S(=O)(=O)c2ccccc2)c2ccccc21)N1CCc2ccccc21 [Ligand 80, 2-[3-(benzenesulfonyl)-1H-indol-1-yl]-1-(2,3-dihydro-1H-indol-1-yl)ethan-1-one] | does not affect recruitment
